The assay addresses active human CypA protein (Homo sapiens, UniProt P62937). Kind of assay: Surface plasmon resonance. The format is binding. To be noted: assays of Fig. 5 (CypA SPR, IL-2). (In SPR one partner is held on a chip, and binding of the other changes the refractive index at the surface.)

The structures appear in SMILES notation.

active human CypA protein, sequence (P62937 whole entry): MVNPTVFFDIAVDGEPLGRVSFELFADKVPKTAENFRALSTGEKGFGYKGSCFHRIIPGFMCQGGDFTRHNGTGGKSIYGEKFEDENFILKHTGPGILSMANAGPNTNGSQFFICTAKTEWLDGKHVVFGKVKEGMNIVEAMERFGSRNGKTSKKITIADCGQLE

As to `CC(=O)O[C@@H]1OC[C@H]2CC(=O)CC[C@H]21` [(-)-24], the “immunosuppressive activity / CypA affinity in words” value is “completely inactive”.
`CC1(C)CCCC(C)(C2=C[C@@H]3COC(=O)[C@@H]3CC2)C1` (stereo partly drawn) [compound 28]: the “immunosuppressive activity / CypA affinity in words” value is “completely inactive”. Besides, the “immunosuppressive activity / CypA affinity in words” value (listed as (–)-28) was “inactive”.

The record behind these values is article PMC6532426 (Nature chemistry, 2019).
